Results reported in patent US20240118263A1, “TARGET FOR SCREENING ANTI-TUMOR DRUG, USE THEREOF AND SCREENING METHOD THEREFOR” (SHENYANG FUYANG PHARMACEUTICAL TECHNOLOGY CO., LTD., priority 2019, published 2024).
Read-outs that look alike come from different tables or passages of the source. Blank lines part the entries; values can stand above or below the molecule they belong to.

Key:
[1] = system: mouse melanoma B16-BL6 cells; experiment: cells; assay type: cell-based
Description: MTT reduction method is used.

[2] = biological target: SelH (Homo sapiens, UniProt Q8IZQ5, U44C); experiment: Surface plasmon resonance (SPR) detection of affinity between compounds and SelH; assay type: binding; conditions: for binding activity to the SelH (in words): ranking within the table's compounds
Description: A Cys-deficient Escherichia coli expression system was adopted, which is an effective method to prepare selenoprotein found in recent years. Itsbasic principle is as follows: the characteristic that Cys transfer RNA (tRNACys) can bind to Sec was utilized, and a culture medium which is lack of cysteine (Cys) and rich in Selenium cysteine (Sec) was used for culturing a strain, so that Sec was successfully incorporated into newly expressed protein. According to existing literature reports, a human SelH gene sequence was obtained. Selenocysteine of the SelH is in the middle of the sequence and was terminated here during prokaryotic expression, so that the selenocysteine was mutated from a triple codon TGA of the selenocysteine into TGC, which was synthesized by the Sangon Bioengineering (Shanghai) Co., Ltd. In addition, the adopted SPP system was a single protein production system, and a principle of the SPP system was to induce MazF enzyme (mRNA interfering enzyme for cutting RNA on an ACA nucleotide sequence) to cause growth arrest of thalli. The enzyme can specifically recognize and cut the ACA sequence and prevent synthesis of other background proteins in bacteria. Therefore, when mRNA of the desired target protein was encoded, if the mRNA can be designed into a form lacking an ACA base triplet according to an amino acid encoding rule and was induced at 15° C. by using a pCold vector in cells expressing MazF, the mRNA was not enzymatically hydrolyzed, only a protein derived from the mRNA was generated, and there was little synthesis of other cell proteins.
A pColdI-selH plasmid was transformed into BL21 (DE3) Cys-deficient Escherichia coli, so as to obtain a defective expression bacterium pColdI-selH. Sec was added during culture, making it become selenium-containing protein. The target protein was purified by using Ni^2+ column chelating chromatography, and impure protein was eluted by using an imidazole eluent of different concentrations to finally obtain the target protein. Soluble SelH protein was finally obtained, and SDS-PAGE (sodium dodecyl sulfate polyacrylamide gel electrophoresis) analysis was carried out.
A surface plasmon resonance (SPR) method was adopted to detect the interaction condition of a small molecule and a protein, so that the screening of drugs targeting SelH was carried out.
Purified SelH was diluted into a 50 μg/mL protein solution by using 10 mM sodium acetate with a pH value of 5.5, the purified SelH was fixed onto a CM5 chip by an amino coupling method by using Biacore 8K (GE Healthcard, Sweden), and an RU value was recorded.
An isopentenyl or isovaleryl substituted coumarin compound, or a triterpenoid compound with an isopentenyl-like structure (the compound specifically includes aurapten, protopanaxadiol, iso-imperatorin, decursin, osthol, notoginsenoside R1 and shionon) was dissolved in 100% DMSO to be prepared into solutions containing 5% DMSO of different concentrations (0, 31.25, 62.5, 125, 250 and 500 μM) by using a 1.05×PBS-P^+ buffer solution (GE Healthcare, obtained by diluting 10×PBS-P^+).
A single-cycle kinetics method was adopted, the 1.05×PBS-P^+ buffer solution containing 5% DMSO was used as a Running Buffer, different compounds of different concentrations flowed through the SelH fixed onto the chip, wherein the binding time was 120 s, and the change condition of the RU value was recorded. An equilibrium dissociation constant (KD) was calculated by using software in Biacore 8K so as to evaluate the binding affinity between the protein and the compounds. The SPR detection result of the affinity between compounds and SelH in Embodiment 2 of the present disclosure is as shown in FIG. 1A-G, and the result statistics is as shown in Table 1.
(1) Screening of small molecule drugs by taking SelH as a target A surface plasmon resonance (SPR) method was adopted to detect the interaction condition of a small molecule and a protein, so that the screening of drugs targeting SelH was carried out. […]

[3] = system: mouse breast cancer 4T1 cells; experiment: MTT in-vitro anti-tumor activity test, 4T1; conditions: read-out: IC50 cytotoxic effect on 4T1
Description: (§1) Experimental Materials Human non-small cell lung cancer cells A549, mouse breast cancer cells 4T-1 and mouse melanoma B16-BL6 were purchased from American Type Current Collection (ATCC, Rockville, MD, USA). An RPMI-1640 culture solution containing 10% of fetal calf serum and 2% of glutamine was inoculated with the A549, 4T-1 and B16-BL6 cells, and the cells were incubated at 37° C. in a 5% CO2 incubator.
(§2) The compounds were dissolved in DMSO under a sterile condition, and the obtained solutions were diluted to required concentrations by using an RPMI 1640 culture solution, wherein the final concentration of the DMSO was less than 0.5%.
(§3) A549, 4T-1 and B16-BL6 were used as adherent cells, adherent tumor cells in a logarithmic phase were selected, digested with pancreatin, and then prepared into a cell suspension of 5×10^4/ml with a culture medium containing 10% of calf serum, a 96-well culture plate was inoculated with the cell suspension, wherein each well contained 100 μl of the cell suspension, and incubation was carried out for 24 h at 37° C. and 5% CO2. Replacing was carried out with a new culture solution containing the samples to be detected of different concentrations in the experimental groups, replacing was carried out with a culture solution containing a same volume of solvent in the control group, three parallel wells were set in each group, and incubation was carried out for 48 hours at 37° C. and 5% CO2. The supernate was discarded, careful washing was carried out with PBS twice, 100 μl of a freshly prepared culture medium containing 0.5 mg/ml of MTT was added into each well, and incubation was continued to be carried out at 37° C. for 4 h. The supernatant was carefully discarded, 150 μl of DMSO was added, uniform mixing was carried out for 10 min by using a micro oscillator, and the optical density value was measured at 492 nm by using a microplate reader.
(§4) Tumor cell growth inhibition ratio (%)=[A492 (negative control)−A492 (dosing group)]/A492 (negative control)×100%
(§5) The median inhibitory concentration (IC50) of the sample is calculated.

[4] = system: human non-small cell lung cancer cells A549; experiment: MTT in-vitro anti-tumor activity test, A549
Description: as §1, §2, §3, §4, §5

[5] = system: human non-small cell lung cancer cells A549
Description: as §1, §2, §3, §4, §5

[6] = system: mouse breast cancer 4T1 cells
Description: as §1, §2, §3, §4, §5

[7] = read-out: IC50 cytotoxic effect on B16-BL6, MTT, 48 hours, Table 1
[8] = SPR Biacore 8K, single-cycle kinetics, Table 1, read-out: Dissociation constant KD of compounds and SelH
[9] = read-out: IC50 cytotoxic effect on A549, MTT, 48 hours, Table 1
[10] = Mus musculus, B16-BL6, 48 h, read-out: IC50 cytotoxic effect on B16-BL6
[11] = SPR Biacore 8K, single-cycle kinetics, Table 3, read-out: KD binding of macrolides and cyclic peptides to SelH
[12] = Homo sapiens, A549, 48 h, read-out: A549 IC50 cytotoxicity
[13] = Mus musculus, B16-BL6, read-out: IC50 cytotoxic effect on B16-BL6, MTT, 48 hours, Table 1
[14] = Homo sapiens, A549, 48 h, read-out: IC50 cytotoxic effect on A549
[15] = SPR Biacore 8K, single-cycle kinetics, Table 2, read-out: Dissociation constant KD of compounds and SelH

Compound: CC(C)=CCCC(C)(O)[C@H]1CC[C@]2(C)[C@@H]1[C@H](O)C[C@@H]1[C@@]3(C)CC[C@H](O)C(C)(C)[C@@H]3CC[C@]12C (stereo in doubt) [Protopanaxadiol, protopanoxadiol]
IC50 [1, 7]: 58 µM
Kd [2, 8]: 6.71e-05 µM
binding activity to the SelH (in words) [2]: strongest
IC50 ([3]; MTT, 48 hours): 30.9 µM
IC50 [4, 9]: 54.4 µM

Compound: CC(=O)O[C@H](CC=C(C)C)C1=CC(=O)c2c(O)ccc(O)c2C1=O [Acetyl Shikonin, acetyl shikonin]
IC50 [1, 10]: 4.44 µM
Kd [2]: 0.000464 µM
binding activity to the SelH (in words) [2]: strongest

IC50 [1]: 61.9 µM
Kd [2, 8]: 1.53e-05 µM
IC50 [5]: 51.9 µM
IC50 [6]: 37.7 µM
Compound: CC(C)=CCC/C(C)=C/COc1ccc2ccc(=O)oc2c1 [Aurapten, aurapten]

Kd [2, 11]: 537 µM
binding activity to the SelH (in words) [2]: weakest
Compound: CC[C@H]1OC(=O)[C@H](C)[C@@H](O[C@H]2C[C@@](C)(OC)[C@@H](O)[C@H](C)O2)[C@H](C)[C@@H](O[C@@H]2O[C@H](C)C[C@H](N(C)C)[C@H]2O)[C@](C)(O)C[C@@H](C)CN(C)[C@H](C)[C@@H](O)[C@]1(C)O [Azithromycin, azithromycin]
IC50 [4, 12]: 72.4 µg/mL

Kd [2, 11]: 4.4 µM
Compound: CO[C@@H]1[C@@H](O[C@@H]2O[C@H](C)[C@@H](O[C@H]3C[C@@](C)(O)[C@@H](OC(=O)CC(C)C)[C@H](C)O3)[C@H](N(C)C)[C@H]2O)[C@@H](CC=O)C[C@@H](C)C(=O)/C=C/[C@@H]2O[C@H]2C[C@@H](C)OC(=O)C[C@H]1OC(C)=O [Carbomycin, carbomycin]
A549 IC50 cytotoxicity [5]: 11.79 µg/mL

Kd [2, 8]: 0.00205 µM
Compound: CC(C)=CC(=O)O[C@H]1Cc2cc3ccc(=O)oc3cc2OC1(C)C [Decursin, decursin]
IC50 [1, 13]: 67.8 µM
IC50 ([3]; Mus musculus, 4T1, 48 h): 38.2 µM
IC50 [4, 14]: 60 µM

Kd [2, 11]: 10.4 µM
Compound: CC[C@H]1OC(=O)[C@H](C)[C@@H](O[C@H]2C[C@@](C)(OC)[C@@H](O)[C@H](C)O2)[C@H](C)[C@@H](O[C@@H]2O[C@H](C)C[C@H](N(C)C)[C@H]2O)[C@](C)(O)C[C@@H](C)C(=O)[C@H](C)[C@@H](O)[C@]1(C)O [Erythromycin, erythromycin]
IC50 [4, 12]: 230 µg/mL

Compound: CC(C)=CCOc1c2ccoc2cc2oc(=O)ccc12 [Iso-imperatorin, iso-imperatorin]
IC50 [1, 13]: 75.2 µM
Kd [2, 8]: 7.53e-05 µM
binding activity to the SelH (in words) [2]: strongest
IC50 ([3]; Mus musculus, 4T1, 48 h): 48.9 µM
IC50 [4, 14]: 72.5 µM

IC50 [1]: 29 µM
Kd [2, 15]: 2.43 µM
Compound: COc1cc(O)c(CC=C(C)C)c2c1C(=O)CC(c1ccc(O)cc1)O2 (stereo not drawn) [Isoxanthohunol, isoxanthohunol]

Kd [2, 15]: 4030 µM
binding activity to the SelH (in words) [2]: weakest
Compound: CC(C)=CCc1c(-c2ccc(O)cc2O)oc2c3c(cc(O)c2c1=O)OC(C)(C)C=C3 [Morusin, morusin]
IC50 ([1]; Mus musculus, B16-BL6, read-out: IC50 cytotoxic effect on B16-BL6, MTT, 48 hours, Table 2): 37.9 µM

Compound: CC(C)=CCC[C@](C)(O[C@@H]1O[C@H](CO)[C@@H](O)[C@H](O)[C@H]1O)[C@H]1CC[C@]2(C)[C@@H]1[C@H](O)C[C@@H]1[C@@]3(C)CC[C@H](O)C(C)(C)[C@@H]3[C@@H](O[C@@H]3O[C@H](CO)[C@@H](O)[C@H](O)[C@H]3O[C@@H]3OC[C@@H](O)[C@H](O)[C@H]3O)C[C@]12C [Notoginsenoside R1, notoginsenoside R1]
IC50 [1, 7]: 111 µM
Kd [2, 8]: 563 µM
binding activity to the SelH (in words) [2]: weakest
IC50 [5]: 126 µM
IC50 [6]: 100 µM

Compound: COc1ccc2ccc(=O)oc2c1CC=C(C)C [Osthol, osthol]
IC50 [1, 7]: 100 µM
Kd [2, 8]: 0.0851 µM
IC50 ([3]; MTT, 48 hours): 67.4 µM
IC50 [4, 9]: 81.2 µM

Compound: CC(C)=CC[C@@H](O)C1=CC(=O)c2c(O)ccc(O)c2C1=O [Shikonin, shikonin]
IC50 [1, 10]: 13 µM
Kd [2]: 5.42 µM

Compound: CC(C)=CCC[C@]1(C)CC[C@]2(C)[C@H]3CC[C@@]4(C)[C@@H](CCC(=O)[C@@H]4C)[C@]3(C)CC[C@@]2(C)C1 [Shionon, shionon]
IC50 [1, 7]: 93.9 µM
Kd [2, 8]: 0.00676 µM
IC50 ([3]; MTT, 48 hours): 82.4 µM
IC50 [4, 9]: 92.7 µM

Kd [2, 11]: 4.38 µM
Compound: CO[C@@H]1[C@@H](O[C@@H]2O[C@H](C)[C@@H](O[C@H]3C[C@@](C)(O)[C@@H](O)[C@H](C)O3)[C@H](N(C)C)[C@H]2O)[C@@H](CC=O)C[C@@H](C)[C@@H](O[C@H]2CC[C@H](N(C)C)[C@@H](C)O2)/C=C/C=C/C[C@@H](C)OC(=O)C[C@H]1O [Spiramycin, spiramycin]
A549 IC50 cytotoxicity ([4]; MTT, 48 hours, Table 3): 18.33 µg/mL

Compound: C=C(NC(=O)C(=C)NC(=O)c1csc(C2=N[C@@H]3c4csc(n4)[C@H]4NC(=O)c5csc(n5)[C@H]([C@](C)(O)[C@@H](C)O)NC(=O)[C@H]5CSC(=N5)/C(=C/C)NC(=O)[C@H]([C@@H](C)O)NC(=O)c5csc(n5)[C@]3(CC2)NC(=O)[C@H](C)NC(=O)C(=C)NC(=O)[C@H](C)NC(=O)[C@H]([C@@H](C)CC)N[C@@H]2C=Cc3c([C@H](C)O)cc(nc3[C@H]2O)C(=O)O[C@@H]4C)n1)C(N)=O [Thiostrepton, thiostrepton]
Kd [2, 11]: 19.9 µM
IC50 [4, 12]: 9.66 µg/mL

Compound: COc1c(O)cc2oc3cc(O)c(CC=C(C)C)c(O)c3c(=O)c2c1CC=C(C)C [α-mangostin]
IC50 ([1]; read-out: IC50 cytotoxic effect on B16-BL6, MTT, 48 hours, Table 2): 40.2 µM
Kd [2, 15]: 398 µM
